Here are results for 27 compounds from US10392404B2, “Compounds and compositions as kinase inhibitors” (NOVARTIS AG, priority 2014, dated 2019).

The target of assay [1] is T1, C-RAF (Homo sapiens, UniProt P04049, Y340E/Y341E).
T1 construct: His tag (implied by nickel chromatography) (cleaved yes); StrepII tag (cleaved yes); made in house; host or cells: Sf9 insect cells (baculovirus), CRAF and h14-3-3 zeta co-expressed; MEK1 substrate from E. coli
Description: In vitro Raf activity determination (Alpha Screen, biotinylated kinase-dead MEK1 substrate), C-Raf. The format is biochemical. Particulars: c-Raf approximately 4 nM; ATP 1 μM; pre-incubation 60 minutes; reaction 1 hour at room temperature. The essentials: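 Full-length C-Raf carrying Y340E/Y341E, co-expressed with 14-3-3ζ in Sf9 cells, at approximately 4 nM, with approximately 10 nM biotinylated kinase-dead MEK1 (K97R) and 1 μM ATP, pH 7.5. Compound preincubated 60 min, reaction 1 hour at room temperature. Phospho-MEK read by AlphaScreen; IC50 by non-linear regression.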

The target in assay [2] is T2, b-Raf (V600E) (Homo sapiens, UniProt P15056, V600E).
T2 construct: made in house
Description: In vitro Raf activity determination (Alpha Screen, biotinylated kinase-dead MEK1 substrate), B-Raf. The format is biochemical. The settings on record: b-Raf (V600E) approximately 4 pM; ATP 10 μM; pre-incubation 60 minutes; reaction 3 hours at room temperature. The essentials:
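Activated b-Raf(V600E) (~4 pM) pre-incubated 60 min with compound and biotinylated kinase-dead (K97R) MEK1 (~10 nM), then reacted 3 h at room temperature with 10 μM ATP in 50 mM Tris pH 7.5, 15 mM MgCl2, 0.01% BSA, 1 mM DTT. Phospho-MEK detected by AlphaScreen; IC50 by non-linear regression.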

T2 sequence (P15056 whole entry V600E): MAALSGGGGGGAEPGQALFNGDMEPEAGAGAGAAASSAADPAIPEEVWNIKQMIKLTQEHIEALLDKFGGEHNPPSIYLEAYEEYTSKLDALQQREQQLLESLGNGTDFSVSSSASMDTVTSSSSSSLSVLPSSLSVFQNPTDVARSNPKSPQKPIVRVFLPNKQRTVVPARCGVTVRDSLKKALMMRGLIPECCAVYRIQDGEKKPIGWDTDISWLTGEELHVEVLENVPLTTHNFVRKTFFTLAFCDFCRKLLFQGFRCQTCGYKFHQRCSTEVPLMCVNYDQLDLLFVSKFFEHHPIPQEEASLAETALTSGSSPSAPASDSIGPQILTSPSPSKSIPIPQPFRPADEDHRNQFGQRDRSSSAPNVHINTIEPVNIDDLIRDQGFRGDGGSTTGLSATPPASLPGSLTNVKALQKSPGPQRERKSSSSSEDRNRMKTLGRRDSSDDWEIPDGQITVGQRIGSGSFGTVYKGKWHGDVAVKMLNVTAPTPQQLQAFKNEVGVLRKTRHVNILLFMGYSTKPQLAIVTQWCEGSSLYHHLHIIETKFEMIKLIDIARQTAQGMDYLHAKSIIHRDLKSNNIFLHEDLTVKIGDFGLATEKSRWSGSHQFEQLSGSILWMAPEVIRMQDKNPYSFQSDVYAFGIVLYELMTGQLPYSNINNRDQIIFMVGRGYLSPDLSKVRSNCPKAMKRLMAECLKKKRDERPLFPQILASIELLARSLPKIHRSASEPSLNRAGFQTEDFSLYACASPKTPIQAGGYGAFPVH
T1 sequence (P04049 whole entry Y340E/Y341E): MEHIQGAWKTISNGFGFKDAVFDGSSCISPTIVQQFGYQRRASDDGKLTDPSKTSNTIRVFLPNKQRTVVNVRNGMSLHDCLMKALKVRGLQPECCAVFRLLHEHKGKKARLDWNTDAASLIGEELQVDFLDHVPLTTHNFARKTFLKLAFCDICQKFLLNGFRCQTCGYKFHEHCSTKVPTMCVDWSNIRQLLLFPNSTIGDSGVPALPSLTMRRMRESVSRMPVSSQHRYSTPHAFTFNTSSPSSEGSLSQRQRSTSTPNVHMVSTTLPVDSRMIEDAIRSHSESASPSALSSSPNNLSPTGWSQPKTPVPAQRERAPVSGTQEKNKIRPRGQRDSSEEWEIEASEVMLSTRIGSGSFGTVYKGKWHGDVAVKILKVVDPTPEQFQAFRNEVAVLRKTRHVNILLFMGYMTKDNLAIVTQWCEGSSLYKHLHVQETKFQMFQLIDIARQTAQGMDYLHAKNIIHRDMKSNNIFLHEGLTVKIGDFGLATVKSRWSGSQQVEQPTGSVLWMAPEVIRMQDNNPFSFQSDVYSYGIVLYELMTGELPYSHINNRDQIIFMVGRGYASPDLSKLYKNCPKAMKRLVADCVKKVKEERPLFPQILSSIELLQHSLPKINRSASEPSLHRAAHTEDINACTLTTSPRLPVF
T1 sequence (P63104 whole entry partner): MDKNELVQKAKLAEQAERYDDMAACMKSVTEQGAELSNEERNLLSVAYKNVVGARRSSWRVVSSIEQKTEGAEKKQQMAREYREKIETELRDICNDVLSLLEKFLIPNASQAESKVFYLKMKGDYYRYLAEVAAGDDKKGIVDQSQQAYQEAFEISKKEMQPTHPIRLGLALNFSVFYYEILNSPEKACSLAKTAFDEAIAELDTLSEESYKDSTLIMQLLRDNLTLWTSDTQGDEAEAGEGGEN

A word on the IC50: it is the concentration at which inhibition is half-maximal. Lower therefore signals higher potency. As to `Cc1ncc(NC(=O)c2ccnc(C(F)F)c2)cc1-c1cnc(N2CCOCC2)c(C#N)c1` [Example 136, N-(5′-cyano-2-methyl-6′-morpholino-[3,3′-bipyridin]-5-yl)-2-(difluoromethyl) isonicotinamide], the half-inhibitory concentration (IC50) in assay [1] was 0.153 nM; in assay [2], 1.16 nM.

For `CNc1ncc(-c2cc(NC(=O)c3cccc(C(F)(F)F)c3)cnc2C)cc1C#N` [Example 8, N-(5′-cyano-2-methyl-6′-(methylamino)-[3,3′-bipyridin]-5-yl)-3-(trifluoromethyl) benzamide], the IC50 was 0.25 nM in assay [1] and 1.98 nM in assay [2].

In the case of `CCCNc1ncc(-c2cc(NC(=O)c3cccc(C(F)(F)F)c3)ccc2C)cc1C#N` [Example 39, N-(3-(5-cyano-6-(propylamino)pyridin-3-yl)-4-methylphenyl)-3-(trifluoromethyl) benzamide], the figures for the IC50 in assay [1] and in assay [2] were 0.429 nM and 4.02 nM, respectively.

Consider `Cc1ccc(NC(=O)c2cccc(C(F)(F)F)c2)cc1-c1cnc(Cl)c(C#N)c1` [Example 33, N-(3-(6-chloro-5-cyanopyridin-3-yl)-4-methylphenyl)-3-(trifluoromethyl)benzamide], for which the half-maximal inhibitory concentration (IC50) in assay [1] came out at 0.432 nM; in assay [2], 3.4 nM.

`Cc1ncc(NC(=O)c2cc(C(C)(F)F)ccn2)cc1-c1cnc(N2CCOCC2)c(C#N)c1` [Example 238, N-(5′-cyano-2-methyl-6′-morpholino-[3,3′-bipyridin]-5-yl)-4-(1,1-difluoroethyl) picolinamide]: the IC50 was determined as 0.333 nM in assay [1] and 2.25 nM in assay [2].

`COCCNc1ncc(-c2cc(NC(=O)c3ccnc(C4(C#N)CC4)c3)ccc2C)cc1C#N` [Example 177, N-(3-(5-cyano-6-((2-methoxyethyl)amino)pyridin-3-yl)-4-methylphenyl)-2-(1-cyanocyclopropyl) isonicotinamide]: the IC50 in assay [1] is 0.169 nM; in assay [2], 0.94 nM.

`Cc1ccc(NC(=O)c2cccc(C(F)(F)F)c2)cc1-c1cc(C#N)cnc1N` [Example 13, N-(3-(2-amino-5-cyanopyridin-3-yl)-4-methylphenyl)-3-(trifluoromethyl) benzamide]: the IC50 in assay [1] worked out at 0.284 nM; in assay [2], 5.61 nM.

As to `CNc1ncc(-c2cc(NC(=O)c3ccnc(C(C)(C)C#N)c3)ccc2C)cc1C#N` [Example 6, N-(3-(5-cyano-6-(methylamino)pyridin-3-yl)-4-methylphenyl)-2-(2-cyanopropan-2-yl)isonicotinamide], the results for the IC50 in assay [1] and in assay [2] were 0.379 nM and 2.18 nM, respectively.

In the case of `Cc1ncc(NC(=O)c2ccnc(C(C)(C)C#N)c2)cc1-c1cnc(-n2ccnc2C)c(C#N)c1` [Example 81, N-(5′-cyano-2-methyl-6′-(2-methyl-1H-imidazol-1-yl)-[3,3′-bipyridin]-5-yl)-2-(2-cyanopropan-2-yl)isonicotinamide], the IC50 in assay [1] was 15.1 nM; in assay [2] it was 90.6 nM.

Turning to `Cc1ccc(NC(=O)c2ccnc(S(C)(=O)=O)c2)cc1-c1cnc(N2CCOCC2)c(C#N)c1` [Example 156, N-(3-(5-cyano-6-morpholinopyridin-3-yl)-4-methylphenyl)-2-(methylsulfonyl) isonicotinamide], the results for the concentration for half-maximal inhibition (IC50) in assay [1] and in assay [2] were 0.0597 nM and 0.35 nM, respectively.

Take `Cc1ccc(NC(=O)c2cnnc(C(F)(F)F)c2)cc1-c1cnc(N2CCNCC2)c(C#N)c1` [Example 143, N-(3-(5-cyano-6-(piperazin-1-yl)pyridin-3-yl)-4-methylphenyl)-6-(trifluoromethyl) pyridazine-4-carboxamide]: the values for the concentration for half-maximal inhibition (IC50) in assay [1] and in assay [2] were 0.842 nM and 5.63 nM, respectively.

Turning to `COCCNc1ncc(-c2cc(NC(=O)c3cccc(C(F)F)c3)cnc2C)cc1C#N` [Example 199, N-(5′-cyano-6′-((2-methoxyethyl)amino)-2-methyl-[3,3′-bipyridin]-5-yl)-3-(difluoromethyl) benzamide], the figures for the IC50 in assay [1] and in assay [2] were 0.386 nM and 2.62 nM, respectively.

For the compound `Cc1ccc(NC(=O)c2cc(C(F)(F)F)ccn2)cc1-c1cnc(NC2CCOCC2)c(C#N)c1` [Example 226, N-(3-(5-cyano-6-((tetrahydro-2H-pyran-4-yl)amino)pyridin-3-yl)-4-methylphenyl)-4-(trifluoromethyl) picolinamide], the results for the IC50 in assay [1] and in assay [2] were 0.695 nM and 2 nM, respectively.

As to `Cc1ncc(NC(=O)c2cccc(C(F)(F)F)c2)cc1-c1cnc(-c2ccncc2)c(C#N)c1` [Example 106, N-(5′-cyano-2-methyl-[3,3′:6′,4″- terpyridin]-5-yl)-3-(trifluoromethyl) benzamide], the IC50 in assay [1] is 0.391 nM; in assay [2] it was 2.19 nM.

For the compound `Cc1ncc(NC(=O)c2ccnc(C(F)(F)F)c2)cc1-c1cnc(N2CCOCC2)c(C#N)c1` [Example 68, N-(5′-cyano-2-methyl-6′-morpholino-[3,3′-bipyridin]-5-yl)-2-(trifluoromethyl) isonicotinamide], the results for the IC50 in assay [1] and in assay [2] were 0.223 nM and 0.902 nM, respectively.

Turning to `Cc1ncc(NC(=O)c2ccnc(C(C)(C)C#N)c2)cc1-c1cnc(N2CCOC[C@H]2C)c(C#N)c1` [Example 79, (R)-N-(5′-cyano-2-methyl-6′-(3-methylmorpholino)-[3,3′-bipyridin]-5-yl)-2-(2-cyanopropan-2-yl)isonicotinamide], the IC50 in assay [1] was determined as 1.51 nM; in assay [2] it was 4.34 nM.

For the compound `Cc1ncc(NC(=O)c2ccnc(C(C)(C)C#N)c2)cc1-c1cnc(NC2CCOCC2)c(C#N)c1` [Example 72, N-(5′-cyano-2-methyl-6′-((tetrahydro-2H-pyran-4-yl)amino)-[3,3′-bipyridin]-5-yl)-2-(2-cyanopropan-2-yl)isonicotinamide], the values for the 50% inhibitory concentration (IC50) in assay [1] and in assay [2] were 1.53 nM and 6.47 nM, respectively.

`Cc1ncc(NC(=O)c2ccnc(C(C)(C)C#N)c2)cc1-c1cnc(N2CCCC2)c(C#N)c1` [Example 73, N-(5′-cyano-2-methyl-6′-(pyrrolidin-1-yl)-[3,3′-bipyridin]-5-yl)-2-(2-cyanopropan-2-yl)isonicotinamide]: the IC50 in assay [1] was determined as 2.09 nM; in assay [2] it was 8.66 nM.

Take `CNc1ncc(-c2cc(C(=O)Nc3cccc(C(F)(F)F)c3)ccc2C)cc1C#N` [Example 7, 3-(5-cyano-6-(methylamino)pyridin-3-yl)-4-methyl-N-(3-(trifluoromethyl)phenyl) benzamide]: the IC50 in assay [1] worked out at 0.566 nM; in assay [2], 4.44 nM.

In the case of `Cc1ccc(NC(=O)c2ccnc(C(C)(C)C#N)c2)cc1-c1cnc(-n2ccc(=O)cc2)c(C#N)c1` [Example 120, N-(3-(3′-cyano-4-oxo-4H-[1,2′-bipyridin]-5′-yl)-4-methylphenyl)-2-(2-cyanopropan-2-yl)isonicotinamide], the IC50 in assay [1] came out at 6.84 nM; in assay [2], 34.6 nM.

For the compound `Cc1ncc(NC(=O)c2cc(C(C)(C)C#N)ccn2)cc1-c1cnc(N2CC(C)(O)C2)c(C#N)c1` [Example 231, N-(5′-cyano-6′-(3-hydroxy-3-methylazetidin-1-yl)-2-methyl-[3,3′-bipyridin]-5-yl)-4-(2-cyanopropan-2-yl)picolinamide], the figures for the IC50 in assay [1] and in assay [2] were 1.96 nM and 15.8 nM, respectively.

Take `Cc1ncc(NC(=O)c2ccnc(C(F)(F)F)c2)cc1-c1cnc(-c2cccnc2)c(C#N)c1` [Example 104, N-(3′-cyano-2″- methyl-[3,2′:5′,3″- terpyridin]-5″-yl)-2-(trifluoromethyl) isonicotinamide]: the IC50 is 0.594 nM in assay [1] and 3.16 nM in assay [2].

In the case of `Cc1ccc(NC(=O)c2cccc(S(C)(=O)=O)c2)cc1-c1cnc(N2CC(C)(O)C2)c(C#N)c1` [Example 218, N-(3-(5-cyano-6-(3-hydroxy-3-methylazetidin-1-yl)pyridin-3-yl)-4-methylphenyl)-3-(methylsulfonyl) benzamide], the IC50 was 0.617 nM in assay [1] and 3.58 nM in assay [2].

`Cc1ncc(NC(=O)c2ccnc(S(C)(=O)=O)c2)cc1-c1cnc(N(C)C)c(C#N)c1` [Example 271, N-(5′-cyano-6′-(dimethylamino)-2-methyl-[3,3′-bipyridin]-5-yl)-2-(methylsulfonyl) isonicotinamide]: the IC50 in assay [1] came to 1.15 nM; in assay [2] it was 11.2 nM.

With `Cc1ccc(NC(=O)c2cc(C(C)(C)N)cc(C(F)(F)F)c2)cc1-c1cnc(N2CCOCC2)c(C#N)c1` [Example 249, 3-(2-aminopropan-2-yl)-N-(3-(5-cyano-6-morpholinopyridin-3-yl)-4-methylphenyl)-5-(trifluoromethyl) benzamide], the IC50 in assay [1] came out at 0.653 nM; in assay [2] it was 2.54 nM.

Turning to `Cc1ncc(NC(=O)c2ccnc(C(F)(F)F)c2)cc1-c1cnc(-c2c(C)nn(C)c2C)c(C#N)c1` [Example 112, N-(5′-cyano-2-methyl-6′-(1,3,5-trimethyl-1H-pyrazol-4-yl)-[3,3′-bipyridin]-5-yl)-2-(trifluoromethyl) isonicotinamide], the IC50 was found to be 3.51 nM in assay [1] and 17.6 nM in assay [2].

Turning to `Cc1ccc(C(=O)Nc2cccc(C(F)(F)F)c2)cc1-c1cnc(N)c(C#N)c1C` [Example 11, 3-(6-amino-5-cyano-4-methylpyridin-3-yl)-4-methyl-N-(3-(trifluoromethyl)phenyl)benzamide], the values for the IC50 in assay [1] and in assay [2] were 0.606 nM and 9.79 nM, respectively.
